Experiments:
[1] = Liver microsomes stability, mouse; conditions: mouse liver microsomes, 60 min
Experimental: (§1) 40 μL of 10 mM NADPH solution was added to each well. The final concentration of NADPH was 1 mM. The negative control samples were prepared by replacing NADPH with 40 μL of ultra-pure H2O. Samples were prepared in duplicate. Negative controls were prepared in singlet.
(§2) This study was performed in duplicate.
(§3) LC/MS analysis was performed for all samples from this study using a Shimadzu liquid chromatograph separation system equipped with degasser DGU-20A5R; solvent delivery unit LC-30AD; system controller SIL-30AC; column oven CTO-30A; CTC Analytics HTC PAL System. Mass spectrometric analysis was performed using a Triple Quad™ 5500 instrument.
(§4) All calculations were carried out using Microsoft Excel.
(§5) All calculations were carried out using Microsoft Excel. Peak areas were determined from extracted ion chromatograms.

[2] = Liver microsomes stability, rat; conditions: rat liver microsomes, 60 min
Experimental: as §1, §2, §3, §4, §5

[3] = Liver microsomes stability, human; conditions: human liver microsomes, without cofactors, 60 min
Experimental: as §1, §2, §3, §4, §5

[4] = Intestinal mucosal permeation using Caco-2 cell monolayers; conditions: human; for Papp A→B at 2 h, 5 µM / Papp B→A at 2 h, 5 µM / efflux ratio at 2 h, 5 μM: Caco-2, pH 7.4
Experimental: Plate was returned to incubator.
Vortexed for 5 minutes. […] Incubated at 37° C. for 30 minutes.

Plasma stability, rat = type: in vitro ADME
Experimental: (§6) • a. […] The final concentration of organic solvents was 0.5%. The assay was performed in duplicated. • b.
as §4

Plasma stability, human = type: in vitro ADME
Experimental: as §6, §4

Plasma stability, mouse = type: in vitro ADME
Experimental: as §6, §4

human 5-HT2A receptor = human 5-HT2A receptor (Homo sapiens, UniProt P28223); test: Human 5-HT2A radioligand binding assay ([3H]-ketanserin)
Experimental: The objective of this study was to evaluate the binding properties of exemplary compounds of Formula I on 5-hydroxytryptamine receptor 2A (5-HT2A).
• 1. The assay buffer was prepared following the table below.
• 2. 8 doses of reference and test compounds starting from 10 mM stock solution as required was prepared by 5-fold serial dilutions with 100% (v/v) DMSO. • 3. UniFilter-96 GF/B plate was pretreated: • i. 50 μl/well of 0.5% (v/v) PEI was added to […]. The plates were sealed and incubated at […] for 3 hrs. • ii. After incubation, the plates were washed 3 times with ice-cold wash buffer (50 mM Tris, pH7.4). • 4. The assay plate was prepared: • i. Cell membrane was diluted with assay buffer and 330 μl/well was added to 96 round deep well plates to reach a concentration of 20 μg/well. • ii. 8 concentrations of reference or test compounds were prepared and 110 μl/well was added to 96 round deep well plates. • iii. [3H]-ketanserin was diluted with assay buffer to 5 nM (5×final concentration) and 110 μl/well was added to 96 round deep well plates. • 5. The plate was centrifuged at 1000 rpm for 30 secs and then agitated at 600 rpm, R.T. for 5 min. • 6. The plates were sealed and the plate incubated at 279C for 90 min. • 7. The incubation was stopped by vacuum filtration onto GF/B filter plates followed by 4 times washing with ice-cold wash buffer (50 mM Tris, pH7.4). • 8. The plates were dried at 379C for 45 min. • 8. The filter plates were sealed and 40 μl/well of scintillation cocktail was added. • 10. The plate was read by using a Microbeta^2 microplate counter.
• 1. For reference and test compounds, the results were expressed as % Inhibition, using the normalization equation: N=100−100×(U−C2)/(C1−C2), where U is the unknown value, C1 is the average of high controls, and C2 is the average of low controls. • 2. The IC50 was determined by fitting percentage of inhibition as a function of compound concentrations with Hill equation using XLfit.

[5] = Caco-2, pH 7.4, Percentage recovery (%) A→B, Caco-2, A→B
[6] = Caco-2, pH 7.4, Percentage recovery (%) B→A, Caco-2, B→A
[7] = 37° C., N.A. = no peak detected at 30 min

human 5-HT2A receptor, sequence (P28223 whole entry): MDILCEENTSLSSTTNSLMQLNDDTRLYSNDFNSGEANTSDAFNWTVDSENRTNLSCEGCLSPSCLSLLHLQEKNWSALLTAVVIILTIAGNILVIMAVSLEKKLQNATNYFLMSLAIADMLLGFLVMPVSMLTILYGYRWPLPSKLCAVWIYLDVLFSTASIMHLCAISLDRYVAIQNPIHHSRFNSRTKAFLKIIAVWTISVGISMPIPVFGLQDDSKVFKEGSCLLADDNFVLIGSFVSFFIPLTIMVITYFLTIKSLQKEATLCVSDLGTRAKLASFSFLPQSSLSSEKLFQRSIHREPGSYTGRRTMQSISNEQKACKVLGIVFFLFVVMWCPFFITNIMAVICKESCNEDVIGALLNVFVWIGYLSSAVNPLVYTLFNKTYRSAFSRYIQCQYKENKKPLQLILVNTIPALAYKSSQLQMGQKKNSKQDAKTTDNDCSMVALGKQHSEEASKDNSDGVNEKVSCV

O=C(O)Cc1ccccc1Nc1c(Cl)cccc1Cl [Diclofenac, reference compound]
Remaining Percentage (%) after 60 min, Mouse, With cofactors ([1]; with cofactors): 35.94% | Remaining Percentage (%) after 60 min, Mouse, Without cofactors ([1]; without cofactors): 97.86% | Remaining Percentage (%) after 60 min, Rat, With cofactors ([2]; with cofactors): 7.11% | Remaining Percentage (%) after 60 min, Rat, Without cofactors ([2]; without cofactors): 97.86% | Remaining Percentage (%) after 60 min, Human, Without cofactors [3]: 95.90%

C[C@H]1O[C@@H](O[C@H]2[C@@H](O)C[C@H](O[C@H]3[C@@H](O)C[C@H](O[C@H]4CC[C@@]5(C)[C@H](CC[C@@H]6[C@@H]5C[C@@H](O)[C@]5(C)[C@@H](C7=CC(=O)OC7)CC[C@]65O)C4)O[C@@H]3C)O[C@@H]2C)C[C@H](O)[C@@H]1O [Digoxin]
Papp A→B at 2 h, 5 µM [4]: 0.53 ×10⁻⁶ cm/s | Papp B→A at 2 h, 5 µM [4]: 18.9 ×10⁻⁶ cm/s | efflux ratio at 2 h, 5 μM [4]: 35.4 | recovery at 2 h, 5 μM [4, 5]: 86.6% | recovery at 2 h, 5 μM [4, 6]: 104%

CC[C@H](C)C(=O)O[C@H]1C[C@@H](C)C=C2C=C[C@H](C)[C@H](CC[C@@H]3C[C@@H](O)CC(=O)O3)[C@H]21 [Lovastatin, reference compound]
Remaining Percentage (%) 0 min (Plasma stability, rat; 0 min): 100.00% | Remaining Percentage (%) 30 min (Plasma stability, rat; 30 min): 0.00% | Remaining Percentage (%) 60 min (Plasma stability, rat; 60 min): 0.00% | Remaining Percentage (%) 120 min (Plasma stability, rat; 120 min): 0.00% | Remaining Percentage (%) 180 min (Plasma stability, rat; 180 min): 0.00% | Remaining Percentage (%) 240 min (Plasma stability, rat; 240 min): 0.00%

COc1cc2nc(N3CCN(C(=O)c4ccco4)CC3)nc(N)c2cc1OC [Prazosin]
Papp A→B at 2 h, 5 µM [4]: 10.1 ×10⁻⁶ cm/s | Papp B→A at 2 h, 5 µM [4]: 33.1 ×10⁻⁶ cm/s | efflux ratio at 2 h, 5 μM [4]: 3.28 | recovery at 2 h, 5 μM [4, 5]: 79.5% | recovery at 2 h, 5 μM [4, 6]: 105%

CC(C)[N+](C)(CCOC(=O)C1c2ccccc2Oc2ccccc21)C(C)C [Propantheline, reference compound]
Remaining Percentage (%) 0 min (Plasma stability, human; 0 min): 100.00% | half-life at 5 μM (Plasma stability, human; [7]): 9.53 min | Remaining Percentage (%) 30 min (Plasma stability, human; 30 min): 18.68% | Remaining Percentage (%) 60 min (Plasma stability, human; 60 min): 1.28% | Remaining Percentage (%) 0 min (Plasma stability, mouse; 0 min): 100.00% | half-life at 5 μM (Plasma stability, mouse; [7]): 34.4 min | Remaining Percentage (%) 30 min (Plasma stability, mouse; 30 min): 65.32% | Remaining Percentage (%) 60 min (Plasma stability, mouse; 60 min): 32.49% | Remaining Percentage (%) 120 min (Plasma stability, mouse; 120 min): 9.12% | Remaining Percentage (%) 180 min (Plasma stability, mouse; 180 min): 2.90% | Remaining Percentage (%) 240 min (Plasma stability, mouse; 240 min): 0.87%

CC(C)NCC(O)COc1cccc2ccccc12 (stereo not shown) [Propranolol]
Papp A→B at 2 h, 5 µM [4]: 33.5 ×10⁻⁶ cm/s | Papp B→A at 2 h, 5 µM [4]: 23.1 ×10⁻⁶ cm/s | efflux ratio at 2 h, 5 μM [4]: 0.69 | recovery at 2 h, 5 μM [4, 5]: 91.3% | recovery at 2 h, 5 μM [4, 6]: 92.6%

CN(C)CCc1c[nH]c2cccc(OP(=O)(O)O)c12 [Psilocybin, 4-phosphoryloxy-N,N-dimethyltrypatmine]
IC50 (human 5-HT2A receptor): 4.25 µM | Papp A→B at 2 h, 5 µM [4]: 0.06 ×10⁻⁶ cm/s | Papp B→A at 2 h, 5 µM [4]: 0.03 ×10⁻⁶ cm/s | efflux ratio at 2 h, 5 μM [4]: 0.45 | recovery at 2 h, 5 μM [4, 5]: 41.4% | recovery at 2 h, 5 μM [4, 6]: 104%

Source: patent US20260274876A1, “3-PYRROLIDINE-INDOLE DIMERS AS SEROTONERGIC AGENTS USEFUL FOR THE TREATMENT OF DISORDERS RELATED THERETO” (MINDSET PHARMA INC., priority 2022, published 2026)
